In paper PMC5955599, “The HTLV-1 gp21 fusion peptide inhibits antigen specific T-cell activation in-vitro and in mice” (PLoS Pathogens, 2018):

Columns and labels:
[1] = tested on: MOG35-55–antigen specific T-cells; experiment: In-vitro T-cell proliferative response (H3-thymidine incorporation); format: cell-based, mouse (C57Bl/6J); conditions: peptide at 10μM, irradiated MOG35-55 presenting APCs, mean inhibition of proliferation, n = 12
[2] = tested on: MOG35-55–antigen specific T-cells; experiment: Cytokine secretion from activated antigen-specific T-cells (ELISA); format: cell-based, mouse (C57Bl/6J); conditions: peptide at 10μM, APC-activated T-cells, media 24 hours following activation, n = 12
Description: Fig 2 Modulation of Th1/Th2 gene expression and cytokine secretion from activated T-cells by the HTLV FP. MOG35-55–antigen specific T-cells were activated by irradiated MOG35-55 presenting APCs, in the presence of the HTLV FP at 10μM. (A) Total RNA was isolated 24 hours following activation and mRNA expression levels were determined by qRT-PCR. The values of each gene were normalized to Rpl13a as a housekeeping control. The HTLV FP reduces mRNA expression of Th1 specific genes (IFNG, LTA, and STAT4) and elevates mRNA expression of Th2 specific genes (IL4 and IL10). The data is presented as arbitrary units. n≥3. (B) Media was collected 24 hours following activation and secretion of cytokines was measured by ELISA assay. IFN-γ secretion is inhibited, IL4 secretion is elevated and TNFα is not affected by the HTLV FP. n = 12. One-way ANOVA was used for statistical analysis. *P<0.05; **P<0.01;***P<0.001.
Antigen-specific T-cells were plated onto round 96-well plates in medium containing RPMI-1640 supplemented with 2.5% fetal calf serum (FCS), 100 U/ml penicillin, 100 μg/ml streptomycin, 50μM β-mercaptoethanol, and 2mM L-glutamine. […] In addition, the relevant peptide was added. Each treatment was made with quadruplicate. Analysis of IFN-γ, IL-4 and TNFα secretion was performed by ELISA 24 hours after cell activation according to standard protocols from R&D systems.

[3] = tested on: C57BL/6 female mice; experiment: MOG35-55-induced experimental autoimmune encephalomyelitis (EAE); format: in vivo, mouse
Description: (A-B) MOG35-55–antigen specific T-cells were activated by irradiated MOG35-55 presenting APCs, in the presence of HTLV FP or HTLV Scr at 10μM. (A) The proliferative responses were assessed by H^3-thymidine incorporation assay, and normalized to the proliferation of non-activated T-cells. The data is presented as mean inhibition of proliferation. n = 12. (B) IFN-γ was measured by ELISA assay. n = 12. (C-D) EAE was induced in C57BL/6 female mice that were treated with a single dose of HTLV FP, HTLV Scr or vehicle. […] (C) Direct clinical measurement of EAE phenotype in a 5-point scale with increased disease symptoms correlating with higher score value. The data is presented as mean EAE clinical score. (D) Mice were weighed the day before EAE induction, and the change (as a percentage) in weight was recorded. The data is presented as mean change from the initial weight. One-way ANOVA was used for statistical analysis. ^a HTLV FP ≠ Vehicle; ^b HTLV FP ≠ Vehicle & HTLV Scr; ^c HTLV FP ≠ HTLV Scr. ^a,b,cP<0.05. (E) Spleenocytes were harvested at 26 DPI and stimulated using MOG35-55. The proliferative responses were assessed by H^3-thymidine incorporation assay and normalized to the proliferation of non-activated T-cells. The data is presented as counts per minute (CPM). n = 7. (F-G) Spleenocytes were harvested at 26 DPI and stimulated using MOG35-55. Media was collected 48 hours following activation and secretion of IFN-γ and IL4 was measured by ELISA assay. […] One-way ANOVA was used for statistical analysis. *P<0.05;**P<0.01;***P<0.001; ns, not significant.
EAE was induced in 9-week-old wild type and homozygous C57BL/6 female mice (Harlan Laboratories Israel/ Weizmann Institute animal facilities) by injecting a peptide comprising residues 35–55 of mouse myelin oligodendrocyte glycoprotein (MOG35–55; PolyPeptide Laboratories, Strasbourg, France). Mice were injected subcutaneously above the lumbar spinal cord with 100 μl of emulsion containing 200 μg/mouse of the encephalitogenic peptide in complete Freund’s adjuvant (BD-Difco) enriched with 250 μg/mouse of heat-inactivated Mycobacterium tuberculosis (BD-Difco) at 0 days post-induction (DPI). The HTLV FP was dissolved in PBS and added to the emulsion (1mg/kg). Pertussis toxin (Enzo Life Sciences) at a dose of 300 ng per mouse was injected intraperitoneally immediately after the encephalitogenic injection, as well as at […]. EAE disease was scored using a five-point grading with 0 for no clinical disease; 1, tail weakness; 2, paraparesis (incomplete paralysis of one or two hindlimbs); 3, paraplegia (complete paralysis of one or two hindlimbs); 4, paraplegia with forelimb weakness or paralysis; 5, moribund or dead animals. The mice were examined daily.
EAE was induced in C57BL/6 female mice that were either treated with a single dose of HTLV FP or vehicle. […] (A) Direct clinical measurement of EAE phenotype in a 5-point scale with increased disease symptoms correlating with higher score value. The data is presented as mean EAE clinical score. (B) Mice were weighed the day before EAE induction, and the change (as a percentage) in weight was recorded. The data is presented as mean change from the initial weight. Student’s t-test was used for statistical analysis. *P<0.05; **P<0.01;***P<0.001. (TIF) Click here for additional data file.

[4] = tested on: human peripheral T lymphocytes; experiment: Cytokine secretion from primary human peripheral T-cells (ELISA); format: cell-based; conditions: peptide at 10μM, CD3 and CD28 antibodies, media 48 hours following activation, n = 12
Description: Fig 4 Primary human T-cell activation is inhibited upon HTLV FP treatment. Human peripheral T lymphocytes were isolated from whole blood and activated using CD3 and CD28 antibodies, in the presence of HTLV FP or HTLV Scr at 10μM. Media was collected 48 hours following activation and secretion of IL2, IFN-γ and IL10 was measured by ELISA assay. […] One-way ANOVA was used for statistical analysis. *P<0.05; ***P<0.001; ns, not significant.
Human peripheral T lymphocytes were isolated from whole blood of healthy adult donors by dextran sedimentation and Ficoll (Sigma) gradient separation followed by depletion of B cells using nylon wool column (Unisorb), to which B cells were adsorbed. Cells were incubated in a complete RPMI growth medium (500 ml RPMI Ca/Mg + heat inactivated FCS (10% final) + 5 ml 200 mM L-Glu (2 mM final) +5 ml […] Na pyruvate (1 mM final) + 5 ml Pen Strep antibiotics) for more than 2 h, and then non-adherent cells were harvested and transferred to a new plate, resulting in ~90% CD3+ T lymphocytes. Cells were then used for in vitro assay, in which […] were plated per well in a 96-well plate and activated using CD3 and CD28 antibodies.
Human peripheral T lymphocytes were isolated from whole blood of healthy donors and were incubated in a complete RPMI growth medium (500 ml RPMI Ca/Mg + heat inactivated FCS (10% final) + 5 ml 200 mM L-Glu (2 mM final) +5 ml […] Na pyruvate (1 mM final) + 5 ml Pen Strep antibiotics). Cells were activated using CD3 and CD28 antibodies, in the presence of relevant peptides at 10μM. Media was collected 48 hours following activation and secretion of IL2 and IFN-γ was determined according to standard protocols from R&D systems.

Sequence: ASKAASASPVSAGVTGIGVLMLGVVAMGWASLG [HTLV Scr, scrambled HTLV FP peptide, same amino acid composition and length as the HTLV FP]
- inhibition of T-cell proliferation, activation by MOG35-55 presenting APCs [1]: higher potency than the HTLV Scr
- IFN-γ secretion [2]: higher potency than the HTLV Scr
- clinical symptoms of a cage of treated mice at DPI 17 ([3]; additional experiment, S5 and S6 Movies): exhibiting clinical EAE symptoms
- EAE clinical signs, additional experiment ([3]; single dose 1mg/kg, HTLV FP, HTLV Scr or vehicle, period 11 to 16 DPI, 5-point scale): ascent between 11 to 16 DPI
- IFN-γ secretion, human T-cells [4]: had no effect on T-cell activation
- IL2 secretion, human T-cells [4]: had no effect on T-cell activation
- IL10 secretion, human T-cells [4]: had no effect on T-cell activation
